Laboratory results from US12410185B2, “Compounds targeting mutant calreticulin” (MYELOPRO DIAGNOSTICS AND RESEARCH GmbH, priority 2018, dated 2025).

Legend:
[1] = system: Ba/F3-MPL CALR mutated cell line; test: apoptosis assay by Annexin V/PI staining; type: cell-based, mouse; conditions: 20 uM, 24 h
Protocol: (§1) Ba/F3-MPL CALR wild-type and mutant cell lines were treated with hematoxylin at 20 uM or the equivalent volume of DMSO for 24 h before collection. Annexin V Apoptosis Detection Kit (eBioscience, #88-8007-74) was used based on the manufacturer's instructions. 5 ul of Propidium Iodide Staining Solution (Invitrogen, #00-6990-50) was added to each sample for 10 min before being analyzed with the BD LSRFortessa™ cell analyzer without washing.

[2] = system: Ba/F3-MPL CALR wild-type control; test: apoptosis assay by Annexin V/PI staining; type: cell-based, mouse; conditions: 20 uM, 24 h
Protocol: as §1

[3] = system: mutant CALR Ba/F3 cell lines; test: 72 h dose response test, CellTiter-Glo cell viability assay; type: cell-based, mouse; conditions: 72 h dose response test
mutant calreticulin = test: Western blot analysis of hematoxylin-resistant clones; type: cell-based, mouse; conditions: 24 h treatment
Protocol: FIG. 22: Western blot analysis of hematoxylin resistant clones. All cells were treated for 24 h with hematoxylin before collection.
(§2) Ba/F3-MPL CALR del79/WT and CALR del37/del37 cell lines were cultured with 20 uM of hematoxylin with or without 5% TPO continuously for 4 weeks. The cells were passaged every 3 days and seeded at 0.5 million per well in 6-well plates with addition of fresh hematoxylin and cytokine.
2 million Ba/F3-MPL CALR WT or mutant cells were treated with hematoxylin or the equivalent volume of DMSO in a total volume of 15 ml of RPMI media in T75 flasks (Thermal Fisher Scientific). Cells were collected and washed with PBS before being lysed in whole cell lysis buffer containing 20 mM HEPES, 20% glycerol, 50 mM KCl, 400 mM NaCl, 1 mM EDTA, 1 mM DTT, 5 mM Na orthovanadate, 0.5% NP40, 0.1% Tween 20, supplemented with cOmplete™, Mini, EDTA-free Protease Inhibitor Cocktail (Sigma) and PhosSTOP™ (Sigma). Samples were rotated at 4° C. for 20 min prior to centrifugation at […] for 20 min. The soluble fraction of the sample was collected. Protein concentration was quantified by the Bio-Rad Protein Assay (Bio-Rad) according to the manufacturer's instructions and measured by a SpectraMax Microplate Reader (Molecular Devices). […] Mutant calreticulin was detected by a polyclonal rabbit antibody against the mutant specific C-terminal peptide (Myelopro). […]

CALR expression (mRNA) = test: Real-time PCR analysis of Ba/F3-MPL cell lines; type: cell-based, mouse; conditions: 20 uM, 24 h
Protocol: FIG. 19: Real-time PCR analysis of Ba/F3-MPL cell lines after a 24 h treatment with hematoxylin. Ba/F3-MPL CALR WT, CALR homozygous mutant del37/del37 cell line were treated with 20 uM hematoxylin or an equivalent amount of DMSO as control for 24 h before cell collection and RNA extraction. **P<0.01; ***P<0.001
1 million cells from each sample were collected and washed with PBS twice. RNA samples were extracted by using the RNeasy Mini Kit (Qiagen). Taqman® Gene Expression Assays (Mm01545399_m1) was used to quantify the expression of CALR, and the real-time PCR reaction was performed using a 7500 Fast Real-Time PCR machine (Applied Biosystems™). Statistical test was calculated by Graphpad Prism 7.0 using the two-tailed Student's t test.

[4] = system: hematoxylin-resistant Ba/F3-MPL CALR mutant cell lines; test: dose response test in hematoxylin-resistant cell lines; type: cell-based, mouse; conditions: lines selected under 20 uM hematoxylin for 4 weeks
Protocol: FIG. 21: Dose response of hematoxylin in Ba/F3-MPL resistant cell lines. Ba/F3-MPL CALR del79/WT and Ba/F3-MPL CALR del37/del37 were cultured with hematoxylin at a concentration of 20 uM for 4 weeks. CALR del79/WT resistant clone 1 and CALR del37/del37 resistant clone were cultured without cytokine. CALR del79/WT resistant clone 2 were cultured with 5% TPO.
as §2

wild-type CALR protein = wild-type CALR protein (Homo sapiens, UniProt P27797); test: binding assay (data not shown)
[5] = system: UT-7-TPO CALR del58/WT cells mixed with UT-7-TPO CALR WT cells; test: two-color competition assay, 12 days; type: cell-based; conditions: in the presence of TPO
Protocol: FIG. 11: Competition assay of hematoxylin treatment in UT-7-TPO cells. UT-7-TPO CALR WT (mCherry negative) and UT-7-TPO CALR del58/WT (mCherry positive) cells were mixed and underwent hematoxylin treatment for 12 days. Drug and cytokine were refreshed every 3 days. Percentage of mCherry positive cells were recorded by FACs.
To determine long-term viability, a two-color competition assay was used. Cell lines were transduced with pMSCV-IRES-GFP/mCherry construct, and the fluorescence-positive cells were sorted by a SH800Z Cell Sorter (Sony). GFP/mCherry-positive cell lines were mixed with their non-fluorescent control cells in a 1:1 ratio and underwent compound treatment for 3-12 days. Compounds and cytokines were refreshed every 3 days. Cell samples were analyzed at each time point by a BD LSRFortessa™ cell analyzer (BD Biosciences).

CALR mutant cell lines = test: cells; conditions: 72 h, read-out: IC50 in mutant cell lines
Protocol: Ba/F3 and UT-7-TPO were plated 5.000 cells/well and 16.000 cells/well into 96-well plates with the desirable concentrations of compounds or cytokines added to a total volume of 100 ul. 72 hours later, the CellTiter-Glo luminescent Cell Viability Assay (Promega) was used to determine the cell viability. The luminescent signal was detected by a VICTOR Multilabel Plate Reader (PerkinElmer). Dose response data was analyzed by Graphpad Prism 7.0.
To further explore the chemical space of the compound, a few hematoxylin analogues were also tested (FIGS. 15 to 17). […] The compounds Protosappanin B (A-4) and RJ002 (B-2) were also tested. […] As a comparison, the clinically used chemotherapeutic drugs hydroxyurea and ruxolitinib were also tested in the cell models.

Chain of wild-type CALR protein (P27797 18-417): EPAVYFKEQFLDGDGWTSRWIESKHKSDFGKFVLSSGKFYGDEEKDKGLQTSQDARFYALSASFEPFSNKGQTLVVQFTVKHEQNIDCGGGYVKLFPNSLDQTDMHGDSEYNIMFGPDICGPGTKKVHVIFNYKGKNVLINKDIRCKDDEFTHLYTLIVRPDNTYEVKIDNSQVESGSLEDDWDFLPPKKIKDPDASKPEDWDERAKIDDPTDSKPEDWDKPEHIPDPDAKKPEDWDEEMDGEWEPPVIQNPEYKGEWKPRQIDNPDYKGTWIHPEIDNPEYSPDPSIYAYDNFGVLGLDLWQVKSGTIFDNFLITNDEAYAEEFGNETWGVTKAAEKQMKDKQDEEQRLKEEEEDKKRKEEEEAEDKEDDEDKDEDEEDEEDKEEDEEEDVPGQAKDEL

In the case of Oc1cc2c(cc1O)[C@@H]1c3ccc(O)c(O)c3OC[C@]1(O)C2 [hematoxylin, Hematoxylin], the apoptotic cell numbers [1] is reported as “significant elevation of apoptotic cell numbers”, the apoptotic cell numbers [2] is reported as “not in the wild-type control” and the “reduction of IC50 in mutant CALR Ba/F3 cell lines compared with the wild-type cell line” value [3] is reported as 3-5 fold. For the same compound, the “compound-induced down-regulation of mutant calreticulin in resistant cell lines” value (mutant calreticulin) was “resistance towards the compound-induced down-regulation”, the “magnitude of change (up-regulation) of wild-type and mutant CALR mRNA expression” value (CALR expression (mRNA)) was “around 1.3 fold” and the “viability of resistant cell lines in response to the treatment” value [4] was “Increased viability”. The “binding to wild-type CALR protein” value (wild-type CALR protein) was “bound”, the “outgrowth of mutant cells from the cell population” value [5] was “inhibited the outgrowth of the mutant cells” and the IC50 (CALR mutant cell lines) was 2600 nM.
